Experimental data reported in ChEMBL document CHEMBL4043296 (J Med Chem, 2018).
pEC50, pIC50: −log10 of the molar value.

Legend:
[1] = target: T1, Muscarinic acetylcholine receptor M1 (Homo sapiens, UniProt P11229); assay: (§1) Antagonist activity at human SP/Myc epitope-tagged muscarinic M1 receptor expressed in HEK293T cells assessed as inhibition of carbachol-induced RLuc8-fused Galphaq activation preincubated for 15 mins followed by carbachol induction measured after 2 mins by BRET assay; type: cell-based, HEK-293T
T1 sequence (P11229 whole entry): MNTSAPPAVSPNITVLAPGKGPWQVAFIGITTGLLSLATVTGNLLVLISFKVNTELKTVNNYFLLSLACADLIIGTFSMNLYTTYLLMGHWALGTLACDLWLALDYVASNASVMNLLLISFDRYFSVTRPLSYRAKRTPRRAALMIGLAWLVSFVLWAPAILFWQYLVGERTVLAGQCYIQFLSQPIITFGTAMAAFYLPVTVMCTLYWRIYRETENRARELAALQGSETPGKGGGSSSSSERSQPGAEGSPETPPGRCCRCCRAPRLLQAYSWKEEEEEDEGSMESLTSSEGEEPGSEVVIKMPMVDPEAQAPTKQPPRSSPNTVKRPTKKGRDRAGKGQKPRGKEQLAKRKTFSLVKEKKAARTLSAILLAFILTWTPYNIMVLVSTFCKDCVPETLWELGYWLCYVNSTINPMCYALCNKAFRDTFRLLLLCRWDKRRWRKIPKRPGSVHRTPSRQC

[2] = target: T2, Muscarinic acetylcholine receptor M1 (Homo sapiens) (UniProt P11229); assay: as §1; type: cell-based; details: HEK-293T
T2 sequence (whole entry): T1 sequence (P11229 whole entry)

[3] = target: T3, Muscarinic acetylcholine receptor M4 (Homo sapiens, UniProt P08173); assay: (§2) Antagonist activity at human SP/Myc epitope-tagged muscarinic M4 receptor expressed in HEK293T cells assessed as inhibition of carbachol-induced RLuc8-fused Galphaq activation preincubated for 15 mins followed by carbachol induction measured after 2 mins by BRET assay; type: cell-based, HEK-293T
T3 sequence (P08173 whole entry): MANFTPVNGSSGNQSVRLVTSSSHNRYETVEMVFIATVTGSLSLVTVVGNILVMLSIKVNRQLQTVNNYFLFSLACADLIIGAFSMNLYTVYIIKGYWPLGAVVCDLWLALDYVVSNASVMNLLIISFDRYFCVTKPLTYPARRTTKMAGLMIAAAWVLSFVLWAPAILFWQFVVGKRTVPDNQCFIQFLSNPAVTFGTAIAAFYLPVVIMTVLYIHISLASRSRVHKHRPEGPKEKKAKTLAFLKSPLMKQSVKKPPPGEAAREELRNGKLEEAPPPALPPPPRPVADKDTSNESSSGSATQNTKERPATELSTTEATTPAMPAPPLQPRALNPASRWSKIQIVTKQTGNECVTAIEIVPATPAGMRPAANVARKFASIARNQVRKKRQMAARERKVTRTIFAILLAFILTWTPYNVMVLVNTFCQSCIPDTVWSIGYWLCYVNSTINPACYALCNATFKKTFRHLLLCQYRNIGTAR

[4] = target: T4, Muscarinic acetylcholine receptor M4 (Homo sapiens) (UniProt P08173); assay: as §2; type: cell-based; details: HEK-293T
T4 sequence (whole entry): T3 sequence (P08173 whole entry)

[5] = Tmax in CD1 mouse brain at 3 mg/kg, sc by UPLC-MS analysis; type: ADME, organism-based
Plasma = assay: fAUClast in CD1 mouse plasma at 3 mg/kg, sc by UPLC-MS analysis; type: ADME, organism-based; details: in vivo
[6] = Half life in CD1 mouse brain at 3 mg/kg, sc by UPLC-MS analysis; type: ADME, organism-based
[7] = Tmax in CD1 mouse plasma at 3 mg/kg, sc by UPLC-MS analysis; type: ADME, organism-based
[8] = AUClast in CD1 mouse brain at 3 mg/kg, sc by UPLC-MS analysis; type: ADME, organism-based; parameters: dose 3 mg/kg, time 0 - last, route subcutaneous
[9] = Cmax in CD1 mouse plasma at 3 mg/kg, sc after 0.25 hrs by UPLC-MS analysis; type: ADME, organism-based; parameters: dose 3 mg/kg, route subcutaneous
[10] = Half life in CD1 mouse plasma at 3 mg/kg, sc by UPLC-MS analysis; type: ADME, organism-based
D(4) dopamine receptor = target: T5, D(4) dopamine receptor (Homo sapiens, UniProt P21917); assay: Agonist activity at human SP/Myc epitope-tagged dopamine D4 receptor expressed in HEK293T cells assessed as RLuc8-fused Galphai1 activation after 2 mins by BRET assay; type: cell-based, HEK-293T
T5 sequence (P21917 whole entry): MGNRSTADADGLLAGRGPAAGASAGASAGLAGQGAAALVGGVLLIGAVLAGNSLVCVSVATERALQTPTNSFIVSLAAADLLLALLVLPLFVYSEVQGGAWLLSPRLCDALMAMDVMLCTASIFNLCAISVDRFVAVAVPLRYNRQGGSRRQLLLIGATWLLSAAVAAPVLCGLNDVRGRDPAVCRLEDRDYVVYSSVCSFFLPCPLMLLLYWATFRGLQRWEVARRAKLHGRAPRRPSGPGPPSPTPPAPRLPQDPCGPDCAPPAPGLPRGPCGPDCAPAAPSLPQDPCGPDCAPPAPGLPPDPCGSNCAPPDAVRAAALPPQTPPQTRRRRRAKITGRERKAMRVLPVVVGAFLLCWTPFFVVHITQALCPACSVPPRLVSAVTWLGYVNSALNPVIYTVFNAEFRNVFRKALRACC

[11] = AUClast in CD1 mouse plasma at 3 mg/kg, sc by UPLC-MS analysis; type: ADME, organism-based; parameters: dose 3 mg/kg, route subcutaneous, time 0 - last
[12] = Ratio of AUC in CD1 mouse brain to AUC in CD1 mouse plasma at 3 mg/kg, sc; type: ADME, organism-based; details: read-out: Ratio AUC
Brain = assay: fAUClast in CD1 mouse brain at 3 mg/kg, sc by UPLC-MS analysis; type: ADME, organism-based; details: in vivo
[13] = Ratio of fAUC in CD1 mouse brain to fAUC in CD1 mouse plasma at 3 mg/kg, sc; type: ADME, organism-based; details: read-out: K(p,uu,brain)
[14] = Cmax in CD1 mouse brain at 3 mg/kg, sc after 0.25 hrs by UPLC-MS analysis; type: ADME, organism-based; parameters: dose 3 mg/kg, route subcutaneous

Which results are given for O=C1CCc2ccccc2N1CCCN1CCC(Cc2ccccc2)CC1?
pIC50 [1]: 5.58; Imax [2]: 44%; pIC50 [3]: 5.07; Imax [4]: 66%

With O=C1CCc2ccccc2N1CCCN1CCN(c2ccccc2)CC1 as the compound, how does the Tmax [5] read?
The Tmax was 15 min.

What about the fAUClast (Plasma) of the same compound?
Its fAUClast is 50.5 ng·h/mL.

What about the half-life [6] of the same compound?
The half-life was 55.8 min.

What about the Tmax [7] of the same compound?
The Tmax was 15 min.

What about the AUC(0-t) [8] of the same compound?
Its AUC(0-t) is 2380 ng·h/mL.

And the Cmax [9]?
Its Cmax is 481 ng/mL.

And the half-life [10]?
The half-life was 46.2 min.

And the pEC50 (D(4) dopamine receptor)?
The pEC50 was 9.80.

And the AUC(0-t) [11]?
The AUC(0-t) was 518 ng·h/mL.

What about the Kp [12] of the same compound?
The Kp was 4.35.

And the fAUClast (Brain)?
The fAUClast was 204 ng·h/mL.

What about the Kp uu [13] of the same compound?
The Kp uu was 4.05.

What about the Cmax [14] of the same compound?
Its Cmax is 2050 ng/g.
